Laboratory results as given in patent publication US20230116196A1, “METHOD OF TREATING CNS DISORDERS WITH NEU[…] GABAERGIC COMPOUNDS” (priority 2017, published 2023).
Where two headings read alike, the source gives them in different places.

How the values were obtained:
α1β2γ2 GABAA receptors = target: T1, α1β2γ2 GABAA receptors (Homo sapiens, UniProt P14867+P18507+P47870); experiment: Whole-cell patch clamp: potentiation of GABA EC20 currents at recombinant α1β2γ2 GABAA receptors; type: cell-based
T1 construct: expressed in transfected cells; host or cells: LTK cells, stably transfected
Protocol: Cellular electrophysiology was used to measure the pharmacological properties of ALLO, ganaxolone and SGE-516 in heterologous cell systems. Compounds were tested for their ability to affect GABA mediated currents at a submaximal agonist dose (GABA EC20=2 μM).
LTK cells were stably transfected with the α1β2γ2 subunits of the GABA receptor and CHO cells are transiently transfected with the α4β3γ subunits via the Lipofecatamine method. Cells were passaged at a confluence of about 50-80% and then seeded onto 35 mm sterile culture dishes containing 2 ml culture complete medium without antibiotics or antimycotics. Cells were cultivated at a density that enabled the recording of single cells without visible connections to other cells.
Whole-cell currents were measured with HEKA EPC-10 amplifiers using PatchMaster software. Bath solution for all experiments contained (in mM): NaCl 137, KCl 4, CaCl2 1.8, MgCl2 1, HEPES 10, D-Glucose 10, pH 7.4 with NaOH. Intracellular (pipette) solution contained (in mM): KCl 130, MgCl2 1, Mg-ATP 5, HEPES 10, EGTA 5, pH 7.2 with KOH. During experiments, cells and solutions were maintained at room temperature (19° C.-30° C.). For manual patchclamp recordings, cell culture dishes were placed on the dish holder of the microscope and continuously perfused (1 ml/min) with bath solution. After formation of a Gigaohm seal between the patch electrode and the cell (pipette resistance range: 2.5 MΩ-6.0MΩ; seal resistance range: >1 GΩ) the cell membrane across the pipette tip was ruptured to assure electrical access to the cell interior (whole-cell patch configuration).
Cells were voltage-clamped at a holding potential of −80 mV. GABAA receptors were activated by 2 μM GABA and compounds were sequentially applied at increasing concentrations for 30 s prior to a 2 s application of GABA. GABA and compounds were applied to cells via the Dynaflow perfusion system (Cellectricon, Sweden). Test compounds were dissolved in DMSO to form 10 mM stock solution and serially diluted to 0.01, 0.1, 1, and 10 μM in bath solution. […] All concentrations of test compound were tested on each cell. The relative percentage potentiation was defined as the peak amplitude in response to GABA EC20 in the presence of test compound divided by the peak amplitude in response to GABA EC20 alone, multiplied by 100.
ALLO and ganaxolone are known PAMs of both synaptic and extrasynaptic GABAAR-mediated currents. […] The α1β2γ2 or α4β3δ subunit combinations were chosen as representatives of typical synaptic and extrasynaptic GABAA receptors respectively.

[1] = system: dentate gyrus granule cells (DGGCs); experiment: Acute NAS exposure: phasic currents (sIPSCs) in DGGCs of hippocampal slices; type: cell-based, mouse; conditions: for mean sIPSC amplitude before versus during exposure / mean sIPSC decay time in the presence of NAS: 100 nM acute; for sIPSC Amplitude / sIPSC Decay / sIPSC Frequency: during acute 100 nM exposure
Protocol: Brain slices were prepared from 3- to 5-week-old male C57 mice. Mice were anesthetized with isoflurane, decapitated, and brains were rapidly removed and submerged in ice-cold cutting solution containing (mM): 126 NaCl, 2.5 KCl, 0.5 CaCl2, 2 MgCl2, 26 NaHCO3, 1.25 NaH2PO4, 10 glucose, 1.5 sodium pyruvate, and 3 kynurenic acid. Coronal 310 μm thick slices were cut with the vibratome VT1000S (Leica Microsystems, St Louis, Mo., USA). The slices were then transferred into incubation chamber filled with prewarmed (31-32° C.) oxygenated artificial cerebro-spinal fluid (ACSF) of the following composition (in mM): 126 NaCl, 2.5 KCl, 2 CaCl2, 2 MgCl2, 26 NaHCO3, 1.25 NaH2PO4, 10 glucose, 1.5 sodium pyruvate, 1 glutamine, 3 kynurenic acid and 0.005 GABA bubbled with 95% O2-5% CO2. Slices were allowed to recover at 32° C. for at least 1 hr before recording. Exogenous GABA was added in an attempt to standardize ambient GABA in the slice and provide an agonist source for newly inserted extrasynaptic GABAARs.
After recovery, a single slice was transferred to a submerged, dual perfusion recording chamber (Warner Instruments, Hamden, Conn., USA) on the stage of an upright microscope (Nikon FN-1) with a 40× water immersion objective equipped with DIC/IR optics. Slices were maintained at 32° C. and gravity-superfused with ACSF solution throughout experimentation and perfused at rate of 2 ml/min with oxygenated (O2/CO2 95/5%) ACSF.
Whole-cell currents were recorded from the dentate gyrus granule cells (DGGCs) in 310-μm-thick coronal hippocampal slices. Patch pipettes (5-7MΩ) were pulled from borosilicate glass (World Precision Instruments) and filled with intracellular solution of the composition (in mM) as follows: 140 CsCl, 1 MgCl2, 0.1 EGTA, 10 HEPES, 2 Mg-ATP, 4 NaCl and 0.3 Na-GTP (pH=7.2 with CsOH). A 5 min period for stabilization after obtaining the whole-cell recording conformation (holding potential of −60 mV) was allowed before currents were recorded using an Axopatch 200B amplifier (Molecular Devices), low-pass filtered at 2 kHz, digitized at 20 kHz (Digidata 1440A; Molecular Devices), and stored for offline analysis.
For tonic current measurements, an all-points histogram was plotted for a 10 s period before and during 100 μM picrotoxin application, once the response reached a plateau level. Recordings with unstable baselines were discarded. Fitting the histogram with a Gaussian distribution gave the mean baseline current amplitude and the difference between the amplitudes before and during picrotoxin was considered to be the tonic current. The negative section of the all-points histogram which corresponds to the inward IPSCs was not fitted with a Gaussian distribution (Kretschmannova et al., 2013; Nusser and Mody, 2002). Series resistance and whole-cell capacitance were continually monitored and compensated throughout the course of the experiment. Recordings were eliminated from data analysis if series resistance increased by >20%. Spontaneous inhibitory post-synaptic currents (sIPSCs) were analyzed using the mini-analysis software (version 5.6.4; Synaptosoft, Decatur, Ga.). Minimum threshold detection was set to 3 times the value of baseline noise signal. To assess sIPSC kinetics, the recording trace was visually inspected and only events with a stable baseline, sharp rising phase, and single peak were used to negate artifacts due to event summation. Only recordings with a minimum of 200 events fitting these criteria were analyzed. sIPSCs amplitude, and frequency from each experimental condition was pooled and expressed as mean±SEM. To measure sIPSC decay, 100 consecutive events were averaged and the decay was fitted to a double exponential and the weighted decay constant (tw) was determined. Statistical analysis was performed by using Student t-test (paired and unpaired where appropriate), where p<0.05 is considered significant. […]

T1 sequence (P14867 28-456): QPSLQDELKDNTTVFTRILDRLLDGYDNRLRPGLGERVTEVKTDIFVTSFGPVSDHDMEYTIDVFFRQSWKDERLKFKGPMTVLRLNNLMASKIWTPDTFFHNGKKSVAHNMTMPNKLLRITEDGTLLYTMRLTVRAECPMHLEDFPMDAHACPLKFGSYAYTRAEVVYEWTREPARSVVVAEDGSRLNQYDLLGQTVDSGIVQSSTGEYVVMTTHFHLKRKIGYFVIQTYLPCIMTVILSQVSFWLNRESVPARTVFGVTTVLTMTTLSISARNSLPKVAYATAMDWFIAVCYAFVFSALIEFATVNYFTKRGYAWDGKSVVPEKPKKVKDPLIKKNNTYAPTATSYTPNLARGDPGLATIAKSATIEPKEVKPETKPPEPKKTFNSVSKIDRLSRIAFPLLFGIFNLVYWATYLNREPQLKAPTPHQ
T1 sequence (P47870 25-512 limits assumed): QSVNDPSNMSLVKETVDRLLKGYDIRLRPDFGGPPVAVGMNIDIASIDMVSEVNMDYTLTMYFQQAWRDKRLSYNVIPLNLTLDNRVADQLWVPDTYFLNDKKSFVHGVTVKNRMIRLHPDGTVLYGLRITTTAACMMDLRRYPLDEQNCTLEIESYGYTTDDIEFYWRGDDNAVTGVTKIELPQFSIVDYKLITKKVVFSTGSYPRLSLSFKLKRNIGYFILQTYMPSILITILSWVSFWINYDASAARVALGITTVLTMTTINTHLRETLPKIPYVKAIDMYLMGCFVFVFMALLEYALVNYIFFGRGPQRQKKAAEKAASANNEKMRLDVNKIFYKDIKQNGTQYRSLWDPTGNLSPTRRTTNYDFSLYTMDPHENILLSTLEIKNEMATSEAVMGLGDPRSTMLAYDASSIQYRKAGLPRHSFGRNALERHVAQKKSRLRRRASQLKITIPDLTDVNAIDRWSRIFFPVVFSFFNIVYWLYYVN
T1 sequence (P18507 40-475): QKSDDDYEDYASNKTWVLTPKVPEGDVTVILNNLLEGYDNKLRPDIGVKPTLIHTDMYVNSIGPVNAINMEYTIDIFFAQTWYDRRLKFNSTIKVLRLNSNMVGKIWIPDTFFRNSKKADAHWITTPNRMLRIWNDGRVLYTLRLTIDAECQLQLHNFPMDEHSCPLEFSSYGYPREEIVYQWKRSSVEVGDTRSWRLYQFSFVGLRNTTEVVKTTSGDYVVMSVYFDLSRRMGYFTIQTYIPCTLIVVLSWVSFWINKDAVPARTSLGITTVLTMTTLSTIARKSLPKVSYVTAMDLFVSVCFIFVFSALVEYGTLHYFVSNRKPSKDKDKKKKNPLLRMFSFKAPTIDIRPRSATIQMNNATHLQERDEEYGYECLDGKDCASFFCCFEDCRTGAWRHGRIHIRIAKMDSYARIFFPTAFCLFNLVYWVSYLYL

| Structure (SMILES) | EC50 (α1β2γ2 GABAA receptors; potentiation of current at GABA EC20 (2 μM), n = 3, read-out: EC50, α1β2γ2) [µM] | Emax (α1β2γ2 GABAA receptors; relative percentage potentiation of GABA EC20 current, read-out: Emax ± S.E.M., α1β2γ2) [%] | mean sIPSC amplitude before versus during exposure [1] | mean sIPSC decay time in the presence of NAS [1] | sIPSC Amplitude [1] [pA] | sIPSC Decay [1] [ms] | sIPSC Frequency [1] [Hz] | pEC50 ± S.E.M., α1β2γ2 (α1β2γ2 GABAA receptors; potentiation of current at GABA EC20 (2 μM), n = 3) | EC50 (α1β2γ2 GABAA receptors) [µM] |
| --- | --- | --- | --- | --- | --- | --- | --- | --- | --- |
| C[C@@]1(O)CC[C@@]2(C)[C@H](CC[C@@H]3[C@@H]2CC[C@]2(C)[C@@H](C(=O)Cn4nccn4)CC[C@@H]32)C1 [SGE-516] | 0.061 | 219 | no significant difference | significantly increased | 52.9 | 15.1 | 4.6 | – | – |
| CC(=O)[C@H]1CC[C@H]2[C@@H]3CC[C@H]4C[C@H](O)CC[C@]4(C)[C@H]3CC[C@]12C [ALLO, Allopregnanolone] | – | – | no significant difference | significantly increased | 39.1 | 19.2 | 3.4 | 6.9 ± 0.2 | – |
| CC(=O)[C@H]1CC[C@H]2[C@@H]3CC[C@H]4C[C@](C)(O)CC[C@]4(C)[C@H]3CC[C@]12C [Ganaxolone] | – | – | no significant difference | significantly increased | 55.1 | 23.8 | 5.6 | – | 0.251 |
